Measured values as given in ChEMBL document CHEMBL1201862, “PubChem BioAssay data set” (2004).
Calls of active or inactive are those of the source.

Experiments:
[1] = Vero cell cytotoxicity, dose response, cytotoxicity control for Vif-APOBEC3G degradation inhibitor project, Vero cells (AID 1117358); format: functional; settings: Human immunodeficiency virus 1, Vero
[2] = molecular target: Peroxisome proliferator-activated receptor gamma/Nuclear receptor coactivator 1 (Homo sapiens, UniProt P37231); experiment: (§1) TR-FRET dose response biochemical High Throughput Screening assay for agonists of the steroid receptor coactivator 1 (SRC-1) recruitment by the peroxisome proliferator-activated receptor gamma (PPAR gamma): non-selective agonists. [Related pubchem assays (depositor defined):AID1300, AID1808, AID504735, AID631]; format: protein assay
Sequence of Peroxisome proliferator-activated receptor gamma/Nuclear receptor coactivator 1 (P37231 whole entry): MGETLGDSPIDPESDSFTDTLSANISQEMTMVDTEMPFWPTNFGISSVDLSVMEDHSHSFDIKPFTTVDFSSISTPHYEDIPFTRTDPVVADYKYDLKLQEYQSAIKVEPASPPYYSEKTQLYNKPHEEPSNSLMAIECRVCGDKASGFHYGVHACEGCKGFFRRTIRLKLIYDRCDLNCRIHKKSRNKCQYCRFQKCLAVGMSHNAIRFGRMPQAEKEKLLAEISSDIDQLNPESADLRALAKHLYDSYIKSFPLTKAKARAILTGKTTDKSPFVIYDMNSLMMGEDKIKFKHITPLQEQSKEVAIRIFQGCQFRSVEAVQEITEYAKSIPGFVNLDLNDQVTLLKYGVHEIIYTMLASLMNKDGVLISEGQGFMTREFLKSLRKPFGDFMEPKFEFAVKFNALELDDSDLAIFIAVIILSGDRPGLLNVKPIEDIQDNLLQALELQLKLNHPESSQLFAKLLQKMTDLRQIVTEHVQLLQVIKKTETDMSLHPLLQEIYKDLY
Sequence of Peroxisome proliferator-activated receptor gamma/Nuclear receptor coactivator 1 (Q15788 whole entry, further chain): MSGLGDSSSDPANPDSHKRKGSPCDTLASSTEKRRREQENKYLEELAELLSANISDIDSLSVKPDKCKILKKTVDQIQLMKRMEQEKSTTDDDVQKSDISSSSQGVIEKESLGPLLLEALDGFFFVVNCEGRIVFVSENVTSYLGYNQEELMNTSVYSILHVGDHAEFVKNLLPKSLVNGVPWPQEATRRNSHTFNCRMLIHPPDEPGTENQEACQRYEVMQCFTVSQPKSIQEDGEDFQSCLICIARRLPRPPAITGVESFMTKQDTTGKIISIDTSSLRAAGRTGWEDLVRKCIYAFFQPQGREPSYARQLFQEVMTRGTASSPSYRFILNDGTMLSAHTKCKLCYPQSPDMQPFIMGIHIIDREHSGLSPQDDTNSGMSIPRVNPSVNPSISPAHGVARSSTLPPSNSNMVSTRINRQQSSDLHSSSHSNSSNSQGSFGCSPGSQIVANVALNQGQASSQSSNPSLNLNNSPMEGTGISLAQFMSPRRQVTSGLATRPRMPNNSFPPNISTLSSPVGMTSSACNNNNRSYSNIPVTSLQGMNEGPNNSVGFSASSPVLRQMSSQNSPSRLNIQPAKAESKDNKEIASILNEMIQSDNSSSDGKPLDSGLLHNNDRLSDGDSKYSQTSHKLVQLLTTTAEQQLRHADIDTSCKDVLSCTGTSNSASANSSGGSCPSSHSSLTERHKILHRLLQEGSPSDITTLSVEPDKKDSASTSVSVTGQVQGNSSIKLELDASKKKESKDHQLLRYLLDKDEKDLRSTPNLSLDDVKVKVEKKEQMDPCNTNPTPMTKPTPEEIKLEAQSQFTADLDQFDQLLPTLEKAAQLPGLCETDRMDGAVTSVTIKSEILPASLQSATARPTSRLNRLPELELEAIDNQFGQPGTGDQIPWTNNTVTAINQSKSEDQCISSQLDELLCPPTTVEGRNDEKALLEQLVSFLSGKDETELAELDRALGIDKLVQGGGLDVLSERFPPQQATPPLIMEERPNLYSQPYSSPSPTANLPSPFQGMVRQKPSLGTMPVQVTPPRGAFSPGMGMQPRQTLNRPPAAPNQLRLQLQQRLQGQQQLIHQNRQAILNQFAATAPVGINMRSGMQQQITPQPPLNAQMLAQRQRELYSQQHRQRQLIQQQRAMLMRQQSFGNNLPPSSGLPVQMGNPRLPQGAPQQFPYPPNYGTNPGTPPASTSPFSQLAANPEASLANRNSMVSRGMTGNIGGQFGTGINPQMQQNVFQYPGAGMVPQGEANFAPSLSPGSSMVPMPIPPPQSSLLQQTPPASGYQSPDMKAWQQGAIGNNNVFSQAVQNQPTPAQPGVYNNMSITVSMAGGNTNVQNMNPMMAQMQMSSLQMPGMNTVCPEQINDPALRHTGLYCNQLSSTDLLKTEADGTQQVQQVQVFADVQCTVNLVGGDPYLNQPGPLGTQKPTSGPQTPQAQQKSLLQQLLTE

[3] = molecular target: Peroxisome proliferator-activated receptor gamma/Nuclear receptor coactivator 3 (Homo sapiens, UniProt P37231); experiment: as §1, with “3 (SRC-3)” for “1 (SRC-1)”, “assays: 1301 (Confirmation screen.), 1048 (Primary screen.)]” for “assays (depositor defined):AID1300, AID1808, AID504735, AID631]”; format: functional
[4] = molecular target: Peroxisome proliferator-activated receptor gamma/Nuclear receptor coactivator 2 (Homo sapiens, UniProt P37231); experiment: TR-FRET dose response biochemical High Throughput Screening assay for agonists of the steroid receptor coactivator 2 (SRC-2) recruitment by the peroxisome proliferator-activated receptor gamma (PPAR gamma): non-selective agonists. [Related pubchem assays: 1297, 1032 ]; format: functional
Sequence of Peroxisome proliferator-activated receptor gamma/Nuclear receptor coactivator 2 (P37231 whole entry): as the sequence (P37231 whole entry) above
Sequence of Peroxisome proliferator-activated receptor gamma/Nuclear receptor coactivator 2 (Q15596 whole entry, further chain): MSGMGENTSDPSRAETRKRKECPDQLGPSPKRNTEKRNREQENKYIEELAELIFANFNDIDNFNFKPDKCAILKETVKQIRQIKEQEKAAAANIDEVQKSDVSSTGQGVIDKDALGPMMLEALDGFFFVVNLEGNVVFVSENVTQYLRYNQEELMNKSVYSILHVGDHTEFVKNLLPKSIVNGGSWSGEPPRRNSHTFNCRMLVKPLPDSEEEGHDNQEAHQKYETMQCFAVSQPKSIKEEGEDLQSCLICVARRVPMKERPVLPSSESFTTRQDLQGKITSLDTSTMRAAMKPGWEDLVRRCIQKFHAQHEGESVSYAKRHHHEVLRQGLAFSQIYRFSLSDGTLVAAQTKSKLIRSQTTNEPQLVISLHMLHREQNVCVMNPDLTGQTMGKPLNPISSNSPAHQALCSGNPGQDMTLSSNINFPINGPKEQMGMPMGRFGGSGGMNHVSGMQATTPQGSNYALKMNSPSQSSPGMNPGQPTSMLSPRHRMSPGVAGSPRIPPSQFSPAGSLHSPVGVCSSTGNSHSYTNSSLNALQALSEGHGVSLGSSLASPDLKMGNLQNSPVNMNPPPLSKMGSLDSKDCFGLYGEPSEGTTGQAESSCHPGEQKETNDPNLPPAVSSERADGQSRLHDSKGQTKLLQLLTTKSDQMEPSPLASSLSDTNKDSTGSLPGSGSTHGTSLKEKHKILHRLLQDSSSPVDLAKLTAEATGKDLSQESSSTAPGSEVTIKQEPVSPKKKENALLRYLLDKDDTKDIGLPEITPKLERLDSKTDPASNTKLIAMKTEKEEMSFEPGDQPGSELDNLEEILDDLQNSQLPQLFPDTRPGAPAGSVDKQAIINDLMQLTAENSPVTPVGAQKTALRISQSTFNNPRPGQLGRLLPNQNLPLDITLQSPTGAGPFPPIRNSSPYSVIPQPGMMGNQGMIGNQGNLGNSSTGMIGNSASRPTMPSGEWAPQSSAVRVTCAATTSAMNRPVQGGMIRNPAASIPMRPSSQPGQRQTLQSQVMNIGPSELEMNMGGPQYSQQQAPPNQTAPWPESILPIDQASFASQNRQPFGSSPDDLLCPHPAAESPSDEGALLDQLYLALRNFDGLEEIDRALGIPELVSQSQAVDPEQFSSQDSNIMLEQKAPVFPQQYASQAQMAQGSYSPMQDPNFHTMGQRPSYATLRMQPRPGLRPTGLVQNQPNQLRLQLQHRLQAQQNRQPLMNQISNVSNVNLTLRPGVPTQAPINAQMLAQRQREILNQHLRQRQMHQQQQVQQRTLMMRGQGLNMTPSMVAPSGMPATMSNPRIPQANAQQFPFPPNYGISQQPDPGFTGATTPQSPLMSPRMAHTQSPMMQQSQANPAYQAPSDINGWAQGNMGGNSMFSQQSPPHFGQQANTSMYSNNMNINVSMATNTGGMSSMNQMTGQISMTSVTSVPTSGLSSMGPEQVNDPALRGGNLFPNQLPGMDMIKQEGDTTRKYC

[5] = Luminescence Cell-Based Dose Confirmation HTS to Identify Activators of 5'UTR Stem-Loop Driven Alpha-Synuclein mRNA Translation in H4 Neuroglioblastoma Cells. [Related pubchem assays: 1829 (Project Summary), 1814 (Primary HTS)]; format: functional
[6] = Luminescence Cell-Based Dose Response HTS to Identify Activators of Luciferase Translation or Activity in H4 […] Cells. [Related pubchem assays: 1829 (Project Summary), 1814 (Primary HTS)]; format: functional
[7] = test system: H4; experiment: Luminescence Cell-Based Dose Response HTS to Identify Activators of 5'UTR Stem-Loop Driven Prion Protein mRNA Translation in H4 Neuroglioblastoma Cells. [Related pubchem assays: 1829 (Project Summary), 1814 (Primary HTS)]; format: functional; settings: Homo sapiens
[8] = molecular target: Eukaryotic translation initiation factor 4E (Mus musculus, UniProt P63073); experiment: eIF4E–eIF4G protein interaction inhibitors, dose response, biochemical, TR-FRET (AID 855); format: functional;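 note: potency for disrupting eIF4E binding to eIF4GI seen as loss of FRET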
Sequence of Eukaryotic translation initiation factor 4E (P63073 whole entry): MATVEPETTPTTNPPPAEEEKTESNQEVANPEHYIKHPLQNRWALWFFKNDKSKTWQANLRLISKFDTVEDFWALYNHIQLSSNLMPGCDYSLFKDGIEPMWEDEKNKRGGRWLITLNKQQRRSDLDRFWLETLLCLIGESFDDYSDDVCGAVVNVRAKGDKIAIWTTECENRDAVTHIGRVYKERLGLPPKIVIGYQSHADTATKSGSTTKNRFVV

[9] = molecular target: DNA dC->dU-editing enzyme APOBEC-3G (Homo sapiens, UniProt Q9HC16); experiment: Dose Response confirmation of small molecule APOBEC3G DNA Deaminase Inhibitors via a fluorescence-based single-stranded DNA deaminase assay. [Related pubchem assays (depositor defined):AID493012, AID493028]; format: functional
Sequence of DNA dC->dU-editing enzyme APOBEC-3G (Q9HC16 whole entry): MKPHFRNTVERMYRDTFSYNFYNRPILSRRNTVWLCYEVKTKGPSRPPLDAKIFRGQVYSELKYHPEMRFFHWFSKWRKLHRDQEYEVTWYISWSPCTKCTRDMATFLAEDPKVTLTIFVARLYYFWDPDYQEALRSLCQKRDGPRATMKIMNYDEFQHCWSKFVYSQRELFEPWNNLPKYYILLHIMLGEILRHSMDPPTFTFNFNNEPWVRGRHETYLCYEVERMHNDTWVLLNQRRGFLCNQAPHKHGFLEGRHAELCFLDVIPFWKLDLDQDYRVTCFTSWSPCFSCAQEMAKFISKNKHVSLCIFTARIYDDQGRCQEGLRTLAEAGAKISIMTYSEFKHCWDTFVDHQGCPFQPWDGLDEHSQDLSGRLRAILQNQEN

[10] = molecular target: Voltage-dependent T-type calcium channel subunit alpha-1H (Homo sapiens, UniProt O95180); format: functional;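 note: channel activity triggered by adding a high calcium stimulation buffer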
[11] = molecular target: Prothrombin (Homo sapiens, UniProt P00734); experiment: Thrombin 1536 HTS Dose Response Confirmation. [Related pubchem assays: 1046 (Thrombin 1536 HTS; hits were confirmed in this assay)]; format: functional
[12] = molecular target: T1, Coagulation factor XII (Homo sapiens, UniProt P00748); format: functional;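 note: activated factor XIIa alpha cleaving a fluorogenic AMC peptide substrate; inhibitor potency from loss of enzyme activity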
T1 sequence (P00748 whole entry): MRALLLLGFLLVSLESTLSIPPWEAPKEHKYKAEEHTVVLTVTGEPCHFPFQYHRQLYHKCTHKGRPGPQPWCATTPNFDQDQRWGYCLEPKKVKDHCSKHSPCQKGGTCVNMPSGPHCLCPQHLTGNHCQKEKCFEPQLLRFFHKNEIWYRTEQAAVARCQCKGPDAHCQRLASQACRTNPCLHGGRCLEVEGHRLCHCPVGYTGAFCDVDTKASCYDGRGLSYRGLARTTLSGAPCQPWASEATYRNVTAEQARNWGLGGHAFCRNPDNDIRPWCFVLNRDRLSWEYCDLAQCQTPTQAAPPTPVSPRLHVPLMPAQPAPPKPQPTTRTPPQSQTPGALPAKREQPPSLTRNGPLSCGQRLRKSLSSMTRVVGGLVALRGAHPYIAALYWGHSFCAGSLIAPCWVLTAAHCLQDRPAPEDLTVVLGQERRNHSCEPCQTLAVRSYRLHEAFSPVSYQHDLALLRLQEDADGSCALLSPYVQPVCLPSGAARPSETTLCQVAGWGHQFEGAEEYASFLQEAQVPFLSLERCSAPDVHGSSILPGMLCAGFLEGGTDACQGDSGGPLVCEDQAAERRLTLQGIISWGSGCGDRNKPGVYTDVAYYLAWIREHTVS

[13] = cells; format: functional, cell-based
[14] = cells; format: functional, cell-based; remark: listed apart in the source
[15] = molecular target: Trypsin (Sus scrofa, UniProt P00761); experiment: porcine trypsin inhibitors, dose response, selectivity assay for Rce1 protease inhibitor project, biochemical, quenched peptide fluorescence, cherry-pick (AID 488789)
Sequence of Trypsin (P00761 whole entry): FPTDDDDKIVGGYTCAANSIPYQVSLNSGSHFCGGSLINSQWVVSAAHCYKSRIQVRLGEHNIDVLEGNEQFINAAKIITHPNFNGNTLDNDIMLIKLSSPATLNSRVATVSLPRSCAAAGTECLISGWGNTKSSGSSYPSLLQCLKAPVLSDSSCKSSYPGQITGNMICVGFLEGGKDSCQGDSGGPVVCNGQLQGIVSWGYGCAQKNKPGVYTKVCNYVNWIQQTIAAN

[16] = molecular target: T2, Leucine aminopeptidase (Plasmodium falciparum 3D7, UniProt Q8IL11); experiment: P. falciparum M17LAP inhibitors, primary screen, biochemical, fluorogenic H-Leu-NHMec substrate, 1536-well (AID 1619); format: functional
T2 sequence (Q8IL11 whole entry): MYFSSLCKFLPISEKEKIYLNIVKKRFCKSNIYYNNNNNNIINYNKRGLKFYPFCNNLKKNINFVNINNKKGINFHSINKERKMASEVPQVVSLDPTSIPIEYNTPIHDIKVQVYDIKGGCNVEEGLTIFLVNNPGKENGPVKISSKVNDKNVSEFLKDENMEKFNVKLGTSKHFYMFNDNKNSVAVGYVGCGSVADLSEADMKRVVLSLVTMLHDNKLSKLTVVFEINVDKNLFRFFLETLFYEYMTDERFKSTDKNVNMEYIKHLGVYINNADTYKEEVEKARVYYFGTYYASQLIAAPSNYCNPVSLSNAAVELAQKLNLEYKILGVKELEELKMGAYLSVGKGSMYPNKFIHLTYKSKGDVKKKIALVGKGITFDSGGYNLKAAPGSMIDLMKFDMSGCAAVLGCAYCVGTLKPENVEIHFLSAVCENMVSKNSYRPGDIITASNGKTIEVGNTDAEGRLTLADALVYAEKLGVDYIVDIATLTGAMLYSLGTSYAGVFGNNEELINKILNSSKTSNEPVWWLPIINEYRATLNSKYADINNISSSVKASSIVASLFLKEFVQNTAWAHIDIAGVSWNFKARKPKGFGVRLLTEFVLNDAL

[17] = molecular target: T3, Calpain-2 catalytic subunit (Sus scrofa, UniProt P43367); experiment: pig calpain II inhibitor potency, dose response, biochemical, fluorogenic peptide substrate (AID 1420); format: functional
T3 sequence (P43367 whole entry): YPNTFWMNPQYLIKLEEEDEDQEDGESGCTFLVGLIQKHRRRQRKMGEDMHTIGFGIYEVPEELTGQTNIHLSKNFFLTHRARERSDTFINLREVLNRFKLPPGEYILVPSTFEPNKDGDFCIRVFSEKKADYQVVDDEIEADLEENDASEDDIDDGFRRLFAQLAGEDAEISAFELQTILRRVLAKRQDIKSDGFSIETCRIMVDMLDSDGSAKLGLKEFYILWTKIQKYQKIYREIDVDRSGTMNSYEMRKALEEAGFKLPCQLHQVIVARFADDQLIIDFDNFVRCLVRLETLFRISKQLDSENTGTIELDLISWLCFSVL

[18] = test system: Streptococcus sp. 'group A'; experiment: growth inhibition of control SK(-) GAS strain, dose response, counter-screen for streptokinase expression inhibitor project, luminescence, kanamycin, BacTiterGlo, confirmation (AID 1900); format: functional, organism-based
[19] = molecular target: T4, Streptokinase A (Streptococcus pyogenes serotype M1, UniProt P10520); experiment: S. pyogenes streptokinase expression inhibitors, potency, dose response, plasminogen activation absorbance, OD405 (AID 1914); format: functional, Streptococcus pyogenes M1 GAS;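 note: secreted streptokinase activity via plasminogen activation per viability signal from cell pellet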
T4 sequence (P10520 whole entry): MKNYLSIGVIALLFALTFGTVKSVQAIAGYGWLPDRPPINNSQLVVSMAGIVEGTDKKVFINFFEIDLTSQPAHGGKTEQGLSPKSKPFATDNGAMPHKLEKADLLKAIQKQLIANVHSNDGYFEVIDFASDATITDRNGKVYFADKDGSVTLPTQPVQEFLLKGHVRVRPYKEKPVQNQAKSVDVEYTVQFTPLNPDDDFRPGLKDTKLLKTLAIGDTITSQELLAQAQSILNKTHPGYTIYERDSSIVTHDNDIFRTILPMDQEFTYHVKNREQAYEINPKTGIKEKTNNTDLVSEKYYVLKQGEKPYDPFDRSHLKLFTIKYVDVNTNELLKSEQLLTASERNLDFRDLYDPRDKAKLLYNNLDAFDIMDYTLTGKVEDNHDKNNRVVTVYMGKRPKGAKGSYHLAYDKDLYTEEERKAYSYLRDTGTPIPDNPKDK

[20] = test system: Streptococcus; experiment: Group A Streptococcus viability loss, dose response, counter-screen for streptokinase expression inhibitor project, luminescence, BacTiterGlo (AID 1915); format: functional, organism-based;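 note: potency for reduction of bacterial viability or growth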

## CCOc1ccc2nc(O)c(CN(Cc3ccco3)C(=O)c3ccc(Br)cc3)cc2c1
[1]
  CC50: 32.4 µM (active)

## NC(=O)CSc1oc(-c2cccs2)nc1S(=O)(=O)c1ccccc1
[2]
  EC50: 10.9 µM (inactive)
[3]
  EC50: > 79.4 µM (not active)
[4]
  EC50: 10.8 µM (not active)

## O=C(CCS(=O)(=O)c1cccs1)N1CCCC1
[5]
  EC50: > 120 µM (not active)
[6]
  EC50: > 120 µM (not active)
[7]
  EC50: 17.8 µM (active)
[8]
  IC50: > 64 µM (inactive)

## COc1ccccc1NS(=O)(=O)c1cc(N)ccc1N1CCCCC1
[9]
  IC50: 72.5 µM (active)

## O=C(NC1CCCCC1)N1CCS/C1=N\c1ccccc1
[10]
  EC50: 7.51 µM (active)

## CCC(=O)Oc1ccc2c(C)c(Cl)c(=O)oc2c1
[11]
  IC50: > 50 µM (not active)

## Cn1c(NCCc2ccccc2)cc(=O)n(C)c1=O
[12]
  IC50: > 50 µM (inactive)
[13]
  IC50: > 29.9 µM (inactive)
[14]
  EC50: > 29.9 µM (inactive)

## COc1ccc(-c2c(-c3ccsc3)oc3ccc(N4CCOCC4)cc23)cn1
[15]
  AC50: 9.22 µM (active)

## CC(C)c1ccc(C(=O)NCc2ccc(Cl)cc2)cc1
[8]
  IC50: > 64 µM (inactive)

## CCOc1ccc(NC(=O)CSc2nc(N)c(-c3ccccc3)c(=O)[nH]2)cc1
[16]
  IC50: 5.72 µM (active)

## C/C(=N\NC(=O)Cc1c(C)n[nH]c1O)c1ccc2ccccc2c1
[16]
  IC50: 14 µM (active)

## Cn1c(N)c(C(=O)COC(=O)c2ccc(Cl)c(S(=O)(=O)N3CCCCC3)c2)c(=O)n(C)c1=O
[17]
  IC50: 29.2 µM (not active)

## COc1cccc(-c2nn(C)c3sc(C(=O)Nc4ccc5c(c4)OCCO5)cc23)c1
[5]
  EC50: 5.99 µM (active)
[6]
  EC50: 22.9 µM (active)
[18]
  EC50: 6.53 µM (active)
[7]
  EC50: > 120 µM (not active)
[19]
  EC50: > 150 µM (not active)
[20]
  EC50: 13.9 µM (active)
[1]
  CC50: > 40 µM (active)

## Cn1c(Cl)nc2c1c(=O)n(Cc1cccc(Br)c1)c(=O)n2C
[11]
  IC50: > 50 µM (not active)
